Measurements reported in ChEMBL document CHEMBL1201862, “PubChem BioAssay data set” (2004).
Calls of active or inactive are those of the source.

Tests used:
Cysteine protease ATG4B = biological target: T1, Cysteine protease ATG4B (Homo sapiens, UniProt Q9Y4P1); type: functional;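 further: Fluorescence-based dose-response confirmation assay measuring inhibition of ATG4B activity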
T1 sequence (Q9Y4P1 whole entry): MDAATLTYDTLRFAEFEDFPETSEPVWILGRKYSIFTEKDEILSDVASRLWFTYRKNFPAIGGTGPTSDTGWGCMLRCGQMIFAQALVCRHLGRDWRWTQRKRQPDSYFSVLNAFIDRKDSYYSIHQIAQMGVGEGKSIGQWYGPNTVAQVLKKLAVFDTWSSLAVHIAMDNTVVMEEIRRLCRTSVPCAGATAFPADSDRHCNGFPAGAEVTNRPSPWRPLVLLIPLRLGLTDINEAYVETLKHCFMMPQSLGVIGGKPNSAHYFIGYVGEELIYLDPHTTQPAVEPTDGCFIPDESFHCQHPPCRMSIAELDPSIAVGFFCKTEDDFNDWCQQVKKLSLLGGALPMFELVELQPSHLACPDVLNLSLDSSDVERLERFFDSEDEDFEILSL

Phospholipase A2 = Phospholipase A2 (Homo sapiens, UniProt P04054); type: functional;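 further: confirmatory dose-response counterscreen on phospholipase A2, testing hits that came from an ultra-high-throughput screen for ATG4B inhibitors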
Fatty acid synthase [1] = biological target: T2, Fatty acid synthase (Homo sapiens, UniProt P49327); experiment: FAS thioesterase domain inhibitors, dose response, biochemical, endpoint fluorescence intensity, uHTS hits (AID 624327); type: functional;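 further: fluorescence from hydrolysis of an O-methyl fluorescein acyl ester substrate by the enzyme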
Fatty acid synthase [2] = biological target: T2, Fatty acid synthase; experiment: FAS thioesterase domain inhibitors, dose response, biochemical, kinetic fluorescence intensity (AID 624326); type: functional;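 further: rate of fluorescence rise from hydrolysis of a fluorogenic O-methyl fluorescein ester substrate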
[3] = tested on: Streptococcus sp. 'group A'; experiment: growth inhibition of control SK(-) GAS strain, dose response, counter-screen for streptokinase expression inhibitor project, luminescence, kanamycin, BacTiterGlo, confirmation (AID 1900); type: functional, organism-based
Streptokinase A = biological target: T3, Streptokinase A (Streptococcus pyogenes serotype M1, UniProt P10520); experiment: S. pyogenes streptokinase expression inhibitors, potency, dose response, plasminogen activation absorbance, OD405 (AID 1914); type: functional, Streptococcus pyogenes M1 GAS;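 further: secreted streptokinase activity via plasminogen activation per viability signal from cell pellet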
T3 sequence (P10520 whole entry): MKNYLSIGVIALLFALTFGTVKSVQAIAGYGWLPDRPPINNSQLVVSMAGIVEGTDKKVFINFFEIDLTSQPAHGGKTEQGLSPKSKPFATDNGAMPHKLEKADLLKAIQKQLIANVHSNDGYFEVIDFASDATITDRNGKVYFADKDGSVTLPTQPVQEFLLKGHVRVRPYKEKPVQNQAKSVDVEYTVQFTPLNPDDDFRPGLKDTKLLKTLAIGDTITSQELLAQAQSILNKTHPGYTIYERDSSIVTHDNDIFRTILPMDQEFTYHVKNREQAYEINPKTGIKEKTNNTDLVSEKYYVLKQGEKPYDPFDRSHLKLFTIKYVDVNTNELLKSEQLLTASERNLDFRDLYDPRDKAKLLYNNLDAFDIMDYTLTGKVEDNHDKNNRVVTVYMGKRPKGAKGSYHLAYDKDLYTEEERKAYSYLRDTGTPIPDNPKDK

Streptococcus = experiment: Group A Streptococcus viability loss, dose response, counter-screen for streptokinase expression inhibitor project, luminescence, BacTiterGlo (AID 1915); type: functional, organism-based;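 further: potency for reduction of bacterial viability or growth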
[4] = biological target: T4, Sentrin-specific protease 8 (Homo sapiens, UniProt Q96LD8); experiment: SENP8 protease inhibitors, SAR follow-up, biochemical, luminescence (AID 504501); type: functional
T4 sequence (Q96LD8 whole entry): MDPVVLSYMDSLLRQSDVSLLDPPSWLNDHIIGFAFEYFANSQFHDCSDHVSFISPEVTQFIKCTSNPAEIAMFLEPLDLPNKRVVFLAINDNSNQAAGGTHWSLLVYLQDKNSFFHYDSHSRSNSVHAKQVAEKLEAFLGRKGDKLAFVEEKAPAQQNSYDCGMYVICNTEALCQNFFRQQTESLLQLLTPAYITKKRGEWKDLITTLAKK

Caspase-3 = biological target: T5, Caspase-3 (Homo sapiens, UniProt P42574); experiment: SAR Analysis of small molecule inhibitors of Sentrin-specific proteases (SENPs) using a Caspase-3 Selectivity assay. [Related pubchem assays (depositor defined):AID2540, AID2599, AID434973, AID489001]; type: functional
T5 sequence (P42574 whole entry): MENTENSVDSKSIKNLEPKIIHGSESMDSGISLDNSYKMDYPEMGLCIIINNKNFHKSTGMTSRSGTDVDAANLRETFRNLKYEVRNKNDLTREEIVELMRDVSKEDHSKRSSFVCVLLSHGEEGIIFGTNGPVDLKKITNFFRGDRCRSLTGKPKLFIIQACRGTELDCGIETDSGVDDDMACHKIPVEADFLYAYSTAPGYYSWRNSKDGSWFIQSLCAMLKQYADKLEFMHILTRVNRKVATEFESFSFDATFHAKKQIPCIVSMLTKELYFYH

[5] = biological target: T6, Sentrin-specific protease 6 (Homo sapiens, UniProt Q9GZR1); experiment: SAR Analysis of small molecule inhibitors of Sentrin-specific protease 6 (SENP6) using a Luminescent assay. [Related pubchem assays (depositor defined):AID2582, AID2599]; type: functional
T6 sequence (Q9GZR1 whole entry): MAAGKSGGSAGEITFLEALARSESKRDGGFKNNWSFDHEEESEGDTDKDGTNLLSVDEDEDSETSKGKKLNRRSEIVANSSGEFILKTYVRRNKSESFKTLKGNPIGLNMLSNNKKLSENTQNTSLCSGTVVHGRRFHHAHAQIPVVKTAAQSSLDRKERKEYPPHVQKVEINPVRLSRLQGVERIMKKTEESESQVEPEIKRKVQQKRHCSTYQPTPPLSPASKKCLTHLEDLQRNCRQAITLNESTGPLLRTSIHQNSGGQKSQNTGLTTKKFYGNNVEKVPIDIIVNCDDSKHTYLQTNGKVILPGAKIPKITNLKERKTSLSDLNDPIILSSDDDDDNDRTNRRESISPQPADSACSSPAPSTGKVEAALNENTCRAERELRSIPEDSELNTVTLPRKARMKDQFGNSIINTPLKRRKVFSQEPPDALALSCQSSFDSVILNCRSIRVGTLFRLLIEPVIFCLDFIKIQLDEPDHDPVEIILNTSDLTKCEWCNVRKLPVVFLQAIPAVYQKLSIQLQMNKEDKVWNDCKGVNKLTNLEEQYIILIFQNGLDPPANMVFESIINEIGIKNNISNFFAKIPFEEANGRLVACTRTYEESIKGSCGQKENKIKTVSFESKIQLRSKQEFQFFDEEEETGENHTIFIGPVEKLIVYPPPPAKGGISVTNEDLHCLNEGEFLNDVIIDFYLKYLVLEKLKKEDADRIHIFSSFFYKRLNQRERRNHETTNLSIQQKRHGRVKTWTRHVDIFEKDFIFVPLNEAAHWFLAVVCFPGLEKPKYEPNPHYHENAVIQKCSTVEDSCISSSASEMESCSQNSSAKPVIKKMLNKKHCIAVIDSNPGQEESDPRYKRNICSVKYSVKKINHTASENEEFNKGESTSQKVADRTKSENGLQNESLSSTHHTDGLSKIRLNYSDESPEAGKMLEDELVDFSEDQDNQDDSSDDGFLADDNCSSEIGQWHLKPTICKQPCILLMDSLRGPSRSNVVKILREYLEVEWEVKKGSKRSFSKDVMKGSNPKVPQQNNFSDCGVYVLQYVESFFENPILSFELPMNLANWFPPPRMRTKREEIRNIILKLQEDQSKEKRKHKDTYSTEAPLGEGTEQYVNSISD

[6] = biological target: T7, Sentrin-specific protease 7 (Homo sapiens, UniProt Q9BQF6); experiment: SENP7 protease inhibitors, SAR follow-up, biochemical, luminescence (AID 504497); type: functional
T7 sequence (Q9BQF6 whole entry): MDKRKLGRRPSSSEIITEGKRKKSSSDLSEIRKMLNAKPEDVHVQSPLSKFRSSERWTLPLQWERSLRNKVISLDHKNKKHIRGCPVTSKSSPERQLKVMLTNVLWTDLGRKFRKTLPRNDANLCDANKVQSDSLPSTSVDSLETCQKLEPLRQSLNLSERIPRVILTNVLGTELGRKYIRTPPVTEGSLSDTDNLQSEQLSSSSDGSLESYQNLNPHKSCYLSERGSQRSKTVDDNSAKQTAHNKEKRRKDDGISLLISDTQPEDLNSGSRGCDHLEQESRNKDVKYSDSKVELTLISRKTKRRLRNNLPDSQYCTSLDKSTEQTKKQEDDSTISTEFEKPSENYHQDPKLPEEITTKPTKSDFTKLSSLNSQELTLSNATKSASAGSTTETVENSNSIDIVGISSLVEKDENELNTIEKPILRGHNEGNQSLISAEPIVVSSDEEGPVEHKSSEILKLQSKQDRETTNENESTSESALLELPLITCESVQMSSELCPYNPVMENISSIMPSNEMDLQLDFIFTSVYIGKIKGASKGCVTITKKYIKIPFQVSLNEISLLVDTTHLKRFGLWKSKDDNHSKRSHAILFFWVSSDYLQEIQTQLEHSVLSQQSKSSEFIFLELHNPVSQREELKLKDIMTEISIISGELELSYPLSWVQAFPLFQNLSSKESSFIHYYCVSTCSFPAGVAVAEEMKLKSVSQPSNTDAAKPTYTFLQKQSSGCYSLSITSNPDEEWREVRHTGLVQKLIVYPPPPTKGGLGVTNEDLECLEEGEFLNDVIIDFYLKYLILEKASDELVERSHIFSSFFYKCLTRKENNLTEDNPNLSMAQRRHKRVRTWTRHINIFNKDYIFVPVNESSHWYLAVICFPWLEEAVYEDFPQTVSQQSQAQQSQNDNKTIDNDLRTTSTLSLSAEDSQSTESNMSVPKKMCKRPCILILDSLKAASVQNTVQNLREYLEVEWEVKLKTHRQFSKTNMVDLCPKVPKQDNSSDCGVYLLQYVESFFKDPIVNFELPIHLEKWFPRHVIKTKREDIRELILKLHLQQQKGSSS

Candida albicans [7] = experiment: growth inhibition of resistant C. albicans, dose response, CaCi-8 strain, fluconazole, dry powder, set 4 (AID 488950); type: functional, organism-based
Candida albicans [8] = experiment: fluconazole resistance reversal in C. albicans, dose response, CaCi-2 strain, Alamar Blue, dry powder, set 4 (AID 488943); type: functional, organism-based

Sequence of Phospholipase A2 (P04054 whole entry, the tested form may be a part): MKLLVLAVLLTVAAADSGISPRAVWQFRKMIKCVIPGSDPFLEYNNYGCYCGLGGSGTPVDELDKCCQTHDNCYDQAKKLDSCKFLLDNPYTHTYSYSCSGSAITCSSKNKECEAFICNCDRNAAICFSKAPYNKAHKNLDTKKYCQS
T2 sequence (P49327 whole entry, the tested form may be a part): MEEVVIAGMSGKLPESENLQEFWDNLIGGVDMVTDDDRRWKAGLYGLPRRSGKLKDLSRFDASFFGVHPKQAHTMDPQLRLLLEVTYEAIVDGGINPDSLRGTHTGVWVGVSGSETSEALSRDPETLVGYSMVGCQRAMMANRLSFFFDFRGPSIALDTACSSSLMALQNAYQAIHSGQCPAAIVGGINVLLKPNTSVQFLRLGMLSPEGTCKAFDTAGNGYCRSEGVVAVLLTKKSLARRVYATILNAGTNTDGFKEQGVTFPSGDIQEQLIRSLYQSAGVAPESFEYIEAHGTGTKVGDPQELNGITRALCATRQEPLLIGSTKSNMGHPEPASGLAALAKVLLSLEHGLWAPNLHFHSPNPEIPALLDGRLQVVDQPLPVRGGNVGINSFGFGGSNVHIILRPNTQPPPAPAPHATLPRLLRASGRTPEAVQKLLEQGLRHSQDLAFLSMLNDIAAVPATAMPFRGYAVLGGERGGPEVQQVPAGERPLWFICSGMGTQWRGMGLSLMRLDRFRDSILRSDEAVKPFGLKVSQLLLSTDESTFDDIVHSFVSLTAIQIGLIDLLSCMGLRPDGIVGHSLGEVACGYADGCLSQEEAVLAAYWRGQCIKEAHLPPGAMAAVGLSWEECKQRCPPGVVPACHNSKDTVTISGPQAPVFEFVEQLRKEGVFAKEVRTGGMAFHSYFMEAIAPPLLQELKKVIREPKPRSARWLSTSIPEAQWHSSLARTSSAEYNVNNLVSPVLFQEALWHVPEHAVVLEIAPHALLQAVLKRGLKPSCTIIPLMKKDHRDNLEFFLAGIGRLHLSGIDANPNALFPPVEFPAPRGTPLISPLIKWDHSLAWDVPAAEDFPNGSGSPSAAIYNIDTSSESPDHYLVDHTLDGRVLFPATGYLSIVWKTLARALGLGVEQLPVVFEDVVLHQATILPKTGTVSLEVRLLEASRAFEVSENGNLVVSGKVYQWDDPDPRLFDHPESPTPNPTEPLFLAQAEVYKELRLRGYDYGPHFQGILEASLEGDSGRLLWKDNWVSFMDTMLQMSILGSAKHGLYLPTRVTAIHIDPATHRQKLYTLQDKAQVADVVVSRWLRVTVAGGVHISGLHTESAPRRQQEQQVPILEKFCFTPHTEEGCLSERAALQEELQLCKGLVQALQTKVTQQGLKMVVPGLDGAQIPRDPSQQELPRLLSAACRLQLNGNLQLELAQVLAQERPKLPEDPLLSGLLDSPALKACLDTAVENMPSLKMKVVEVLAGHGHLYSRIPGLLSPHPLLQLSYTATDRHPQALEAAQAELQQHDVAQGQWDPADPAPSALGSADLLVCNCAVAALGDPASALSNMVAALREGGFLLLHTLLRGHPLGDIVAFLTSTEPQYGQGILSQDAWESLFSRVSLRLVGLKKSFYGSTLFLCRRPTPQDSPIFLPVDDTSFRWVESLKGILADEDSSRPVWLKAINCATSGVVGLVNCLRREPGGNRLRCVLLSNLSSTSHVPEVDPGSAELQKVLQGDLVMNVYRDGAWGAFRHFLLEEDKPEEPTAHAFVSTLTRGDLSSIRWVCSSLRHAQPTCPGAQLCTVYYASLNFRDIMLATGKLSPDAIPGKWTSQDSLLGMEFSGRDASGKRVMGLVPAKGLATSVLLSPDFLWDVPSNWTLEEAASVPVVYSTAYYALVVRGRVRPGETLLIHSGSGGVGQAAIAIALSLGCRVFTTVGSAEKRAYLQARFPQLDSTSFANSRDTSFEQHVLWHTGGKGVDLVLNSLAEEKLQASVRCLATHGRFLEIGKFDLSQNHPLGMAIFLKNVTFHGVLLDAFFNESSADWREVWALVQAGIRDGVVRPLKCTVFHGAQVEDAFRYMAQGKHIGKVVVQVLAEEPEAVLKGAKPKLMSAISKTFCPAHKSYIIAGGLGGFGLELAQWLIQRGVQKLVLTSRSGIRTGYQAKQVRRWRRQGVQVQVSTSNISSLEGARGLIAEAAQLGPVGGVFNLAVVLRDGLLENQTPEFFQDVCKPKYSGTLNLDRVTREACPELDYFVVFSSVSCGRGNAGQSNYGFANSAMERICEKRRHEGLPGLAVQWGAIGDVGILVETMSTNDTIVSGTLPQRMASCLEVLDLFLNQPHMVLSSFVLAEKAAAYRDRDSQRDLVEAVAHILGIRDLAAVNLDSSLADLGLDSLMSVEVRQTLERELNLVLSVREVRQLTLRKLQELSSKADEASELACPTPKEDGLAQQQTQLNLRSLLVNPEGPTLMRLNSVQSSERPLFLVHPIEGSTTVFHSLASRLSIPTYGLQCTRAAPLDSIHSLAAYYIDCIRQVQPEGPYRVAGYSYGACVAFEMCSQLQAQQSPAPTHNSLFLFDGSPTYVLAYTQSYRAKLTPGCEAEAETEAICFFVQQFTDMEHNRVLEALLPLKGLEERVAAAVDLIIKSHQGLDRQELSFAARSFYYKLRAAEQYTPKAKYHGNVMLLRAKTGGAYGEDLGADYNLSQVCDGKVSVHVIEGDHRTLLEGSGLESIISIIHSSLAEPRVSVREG

Structure (SMILES)	IC50 (Cysteine protease ATG4B)	IC50 (Phospholipase A2)	IC50 [4]	IC50 (Caspase-3)	IC50 [5]	IC50 [6]	also measured
O=C(O)COc1ccccc1C=NNc1ccc([N+](=O)[O-])cc1S(=O)(=O)Nc1ccc(Cl)cc1	10.6 µM (active)	12.2 µM (active)	–	–	–	–	IC50 (Fatty acid synthase [1]): 10.8 µM (active); IC50 (Fatty acid synthase [2]): 12.5 µM (active)
O=C1NC(=O)/C(=C\c2ccccc2OCc2ccccc2)S1	10.7 µM (active)	8.29 µM (active)	–	–	–	–	EC50 [3]: 16.4 µM (active); EC50 (Streptokinase A): 37.6 µM (active); EC50 (Streptococcus): 88.8 µM (active)
COC(=O)c1ccc(NC(=O)C(=O)c2c[nH]c3ccccc23)cc1	–	–	> 99 µM (inactive)	> 99 µM (inactive)	> 99 µM (inactive)	> 99 µM (inactive)	–
COc1cc(C(=O)Nc2ccccc2Cl)ccc1OCc1ccc(Cl)cc1	–	–	> 99 µM (inactive)	> 99 µM (inactive)	> 99 µM (inactive)	> 99 µM (inactive)	–
O=C(Nc1ccccc1Cl)c1ccc(OCc2ccccc2)cc1	–	–	> 99 µM (inactive)	> 99 µM (inactive)	> 99 µM (inactive)	> 99 µM (inactive)	–
COc1ccc(OC)c2c(C)cc(N3CCN(C(=O)c4ccc(Cl)cc4)CC3)nc12	–	–	–	–	–	–	AC50 (Candida albicans [7]): 8.32 µM (active); AC50 (Candida albicans [8]): 9.36 µM (active)
O=C(O/N=C1/CCSc2ccccc21)c1ccccc1	16 µM (active)	13.2 µM (active)	–	–	–	–	–
